According to publication PMC4660506 (Pharmacognosy Research, 2015):

Tests used:
xanthine oxidase (XO) = xanthine oxidase (XO) (Bos taurus, UniProt P80457); assay: Xanthine oxidase inhibitory activity; type: biochemical
alpha-amylase = target: T1, alpha-amylase (Sus scrofa, UniProt P00690); assay: Alpha-amylase inhibitory activity; type: biochemical; settings: qualitative statement
T1 sequence (P00690 16-511): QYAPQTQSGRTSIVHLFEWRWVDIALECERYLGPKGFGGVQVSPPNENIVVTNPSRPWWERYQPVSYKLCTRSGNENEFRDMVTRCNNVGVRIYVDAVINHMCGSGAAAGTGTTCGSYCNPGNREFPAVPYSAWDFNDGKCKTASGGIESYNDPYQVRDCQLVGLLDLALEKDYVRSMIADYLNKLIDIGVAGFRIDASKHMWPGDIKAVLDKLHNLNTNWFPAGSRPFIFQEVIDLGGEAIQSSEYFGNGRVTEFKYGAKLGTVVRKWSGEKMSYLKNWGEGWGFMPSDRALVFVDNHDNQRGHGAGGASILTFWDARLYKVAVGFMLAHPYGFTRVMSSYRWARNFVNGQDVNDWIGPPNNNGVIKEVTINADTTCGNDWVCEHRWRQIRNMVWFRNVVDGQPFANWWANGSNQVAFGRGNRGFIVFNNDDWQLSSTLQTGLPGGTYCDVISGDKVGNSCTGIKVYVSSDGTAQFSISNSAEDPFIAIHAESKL

Sequence of xanthine oxidase (XO) (P80457 2-1332 limits assumed): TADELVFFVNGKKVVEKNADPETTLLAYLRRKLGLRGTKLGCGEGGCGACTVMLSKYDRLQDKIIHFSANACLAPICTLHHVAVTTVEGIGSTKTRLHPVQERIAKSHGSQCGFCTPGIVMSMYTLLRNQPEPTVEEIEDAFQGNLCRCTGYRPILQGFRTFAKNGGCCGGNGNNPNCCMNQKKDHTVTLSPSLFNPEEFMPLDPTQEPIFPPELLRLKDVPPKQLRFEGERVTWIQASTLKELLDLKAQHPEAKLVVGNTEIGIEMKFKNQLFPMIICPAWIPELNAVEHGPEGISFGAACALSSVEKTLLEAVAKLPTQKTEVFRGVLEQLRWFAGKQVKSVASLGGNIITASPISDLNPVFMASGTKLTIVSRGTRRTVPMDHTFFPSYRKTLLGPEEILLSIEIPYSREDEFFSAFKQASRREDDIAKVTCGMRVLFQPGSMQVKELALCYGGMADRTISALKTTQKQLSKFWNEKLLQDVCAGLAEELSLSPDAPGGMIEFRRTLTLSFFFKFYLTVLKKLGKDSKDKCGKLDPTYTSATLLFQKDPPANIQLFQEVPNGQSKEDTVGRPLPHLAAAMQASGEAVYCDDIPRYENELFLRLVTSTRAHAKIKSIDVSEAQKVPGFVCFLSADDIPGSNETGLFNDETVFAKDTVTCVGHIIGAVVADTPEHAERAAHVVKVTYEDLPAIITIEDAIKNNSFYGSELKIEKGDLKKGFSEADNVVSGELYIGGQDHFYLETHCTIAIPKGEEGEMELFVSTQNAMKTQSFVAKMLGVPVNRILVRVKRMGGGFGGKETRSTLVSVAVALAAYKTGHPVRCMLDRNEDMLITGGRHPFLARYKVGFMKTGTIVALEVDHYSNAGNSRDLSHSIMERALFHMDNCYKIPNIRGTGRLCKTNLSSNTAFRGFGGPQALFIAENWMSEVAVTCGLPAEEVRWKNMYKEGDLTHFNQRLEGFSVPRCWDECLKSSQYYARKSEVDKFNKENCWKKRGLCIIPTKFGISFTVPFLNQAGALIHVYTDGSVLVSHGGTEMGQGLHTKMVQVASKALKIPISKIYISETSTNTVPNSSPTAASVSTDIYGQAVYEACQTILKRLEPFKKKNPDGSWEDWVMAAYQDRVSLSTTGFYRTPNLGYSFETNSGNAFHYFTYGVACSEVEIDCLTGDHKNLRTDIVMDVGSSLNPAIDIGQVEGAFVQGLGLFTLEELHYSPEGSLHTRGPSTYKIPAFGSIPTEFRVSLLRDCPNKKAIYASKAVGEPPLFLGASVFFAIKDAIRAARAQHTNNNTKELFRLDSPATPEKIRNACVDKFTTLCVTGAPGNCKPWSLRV

| XO inhibitory activity (in words) (xanthine oxidase (XO); qualitative statement) | Compound | Alpha-amylase inhibitory activity (in words) (alpha-amylase) | also measured |
| --- | --- | --- | --- |
| active | 2-hydroxyacetophenone [F2] | – | – |
| – | CC[C@H](CC[C@@H](C)[C@H]1CC[C@H]2[C@@H]3CC=C4C[C@@H](O)CC[C@]4(C)[C@H]3CC[C@]12C)C(C)C [F7, β-sitosterol] | more active against alpha-amylase as compared to the parent fraction | – |
| active | C[C@@H]1O[C@@H](OC[C@H]2O[C@@H](Oc3c(-c4ccc(O)c(O)c4)oc4cc(O)cc(O)c4c3=O)[C@H](O)[C@@H](O)[C@@H]2O)[C@H](O)[C@H](O)[C@H]1O [F9, rutin] | – | EC50 (xanthine oxidase (XO)): 17.5 µM |
| – | O=c1c(O)c(-c2ccc(O)c(O)c2)oc2cc(O)cc(O)c12 [F10, quercetin] | – | XO inhibitory activity (in words) (xanthine oxidase (XO); qualitative statement in text, listed as Quercetin): highest inhibitory activity; XO inhibitory activity (in words) (xanthine oxidase (XO); qualitative statement in text, listed as quercetin): active |
| – | C=C(C)[C@@H]1CC[C@]2(C)CC[C@]3(C)[C@H](CC[C@@H]4[C@@]5(C)CC[C@H](O)C(C)(C)[C@@H]5CC[C@]43C)[C@@H]12 [F11, lupeol] | more active against alpha-amylase as compared to the parent fraction | – |
